In US6465489B1, “Ureidopiperidine derivatives as selective human NK3 receptor antagonists” (Sanofi-Synthelabo, priority 1998, dated 2002):

System: bronchitic and cough response induced by citric acid
Experiment: Bronchitic and cough response induced by citric acid in guinea pigs
Type: in vivo, guinea pig
Conditions: compared with osanetant
Description: In guinea pigs, the effect on the bronchitic and cough response induced by citric acid has been studied using the model described by S. Daoui et al., in Am. J. Resp. Crit. Care Med., 1998, 158, 42-48. In this test, the Example 10 compound has shown an activity 10 times greater than that of osanetant.

Structure (SMILES): CN(C)C(=O)NC1(c2ccccc2)CCN(CCCC2(c3ccc(Cl)c(Cl)c3)CCCN(C(=O)c3ccccc3)C2)CC1 (stereo not shown) [Example 10]
- activity relative to osanetant: 10 times
